SMILES strings stand for the structures. Bounds are passed on as bounds.

The values below come from US20100120884A1, “USE OF DITHIINE-TETRACARBOXIMIDES FOR CONTROLLING PHYTOPATHOGENIC FUNGI” (priority 2008, published 2010).

Test system in one series: not listed separately
The series is described as follows: physchem. Format: physicochemical. The following applies: pH 2.7. As to the method: The determination of the logP values detailed in the tables and preparation examples hereinabove is carried out in accordance with EEC Directive 79/831 Annex V.A8 by means of HPLC (High Performance Liquid Chromatography) on a reversed-phase column (C 18). Temperature: 43° C.
The determination is carried out in the acidic range at pH 2.7, using 0.1% strength aqueous formic acid and acetonitrile (contains 0.1% formic acid) as eluents; linear gradient from 10% acetonitrile to 95% acetonitrile.
Calibration is carried out using unbranched alkan-2-ones (with 3 to 16 carbon atoms) with known logP values (determination of the logP values with reference to the retention times by linear interpolation between two successive alkanones).
On to `CCOCCn1c(=O)c2sc3c(=O)n(CCOCC)c(=O)c3sc2c1=O` [Compound 16, 2,6-Bis(2-ethoxyethyl)-1H,5H-[1,4]dithiino[2,3-c:5,6-c′]dipyrrole-1,3,5,7(2H,6H)-tetrone], for which the chromatographic logP came out at 3.24.

As for `O=c1c2sc3c(=O)n(CC(F)(F)F)c(=O)c3sc2c(=O)n1CC(F)(F)F` [Compound 6, 2,6-Bis(2,2,2-trifluoroethyl)-1H,5H-[1,4]dithiino[2,3-c:5,6-c′]dipyrrole-1,3,5,7(2H,6H)-tetrone], the chromatographic logP turned out to be 3.41.

As for `O=c1c2sc3c(=O)n(Cc4ccccc4)c(=O)c3sc2c(=O)n1Cc1ccccc1` [Compound 11, 2,6-Dibenzyl-1H,5H-[1,4]dithiino[2,3-c:5,6-c′]dipyrrole-1,3,5,7(2H,6H)-tetrone], the chromatographic logP came out at 4.6.

`COCCn1c(=O)c2sc3c(=O)n(CCOC)c(=O)c3sc2c1=O` [Compound 12, 2,6-Bis(2-methoxyethyl)-1H,5H-[1,4]dithiino[2,3-c:5,6-c′]dipyrrole-1,3,5,7(2H,6H)-tetrone] had a chromatographic logP of 2.55.

For `CC(O)Cn1c(=O)c2sc3c(=O)n(CC(C)O)c(=O)c3sc2c1=O` (centres unmarked) [Compound 14, 2,6-Bis(2-hydroxypropyl)-1H,5H-[1,4]dithiino[2,3-c:5,6-c′]dipyrrole-1,3,5,7(2H,6H)-tetrone], the chromatographic logP turned out to be 1.63. Still for that read-out and setting: with `CC(C)(O)Cn1c(=O)c2sc3c(=O)n(CC(C)(C)O)c(=O)c3sc2c1=O` [Compound 34, 2,6-Bis(2-hydroxy-2-methylpropyl)-1H,5H-[1,4]dithiino[2,3-c:5,6-c′]dipyrrole-1,3,5,7(2H,6H)-tetrone] the figure was 3.65. In the case of `O=c1c2sc3c(=O)n(CCOc4ccccc4)c(=O)c3sc2c(=O)n1CCOc1ccccc1` [Compound 15, 2,6-Bis(2-phenoxyethyl)-1H,5H-[1,4]dithiino[2,3-c:5,6-c′]dipyrrole-1,3,5,7(2H,6H)-tetrone], the chromatographic logP came to 3.86. Take `CCOC(=O)C(CC)n1c(=O)c2sc3c(=O)n(C(CC)C(=O)O)c(=O)c3sc2c1=O` (centres unmarked) [Compound 41, 2-[2-(1-Ethoxy-1-oxobutan-2-yl)-1,3,5,7-tetraoxo-2,3,5,7-tetrahydro-1H,6H-[1,4]dithiino[2,3-c:5,6-c′]-dipyrrole-6-yl]butanoic acid]: the chromatographic logP amounted to 1.73.

In the case of `CC(C)n1c(=O)c2sc3c(=O)n(C(C)C)c(=O)c3sc2c1=O` [Compound 4, 2,6-Di(propan-2-yl)-1H,5H-[1,4]dithiino[2,3-c:5,6-c′]dipyrrole-1,3,5,7(2H,6H)-tetrone], the chromatographic logP was found to be 4.19.

As for `CC(=O)OC(C)Cn1c(=O)c2sc3c(=O)n(CC(C)OC(C)=O)c(=O)c3sc2c1=O` (centres unmarked) [Compound 36, (1,3,5,7-Tetraoxo-1,3,5,7-tetrahydro-2H,6H-[1,4]dithiino[2,3-c:5,6-c′]dipyrrole-2,6-diyl)dipropane-1,2-diyl diacetate], the chromatographic logP was 3.09. Same read-out and setting: with `CC(CC(=O)O)n1c(=O)c2sc3c(=O)n(C(C)CC(=O)O)c(=O)c3sc2c1=O` (centres unmarked) [Compound 28, 3,3′-(1,3,5,7-Tetraoxo-1,3,5,7-tetrahydro-2H,6H-[1,4]dithiino[2,3-c:5,6-c′]dipyrrole-2,6-diyl)dibutanoic acid] the figure was 1.99; with `O=C(O)CCCCn1c(=O)c2sc3c(=O)n(CCCCC(=O)O)c(=O)c3sc2c1=O` [Compound 29, 5,5′-(1,3,5,7-Tetraoxo-1,3,5,7-tetrahydro-2H,6H-[1,4]dithiino[2,3-c:5,6-c′]dipyrrole-2,6-diyl)dipentanoic acid], 2.02; with `CC(C(=O)O)n1c(=O)c2sc3c(=O)n(C(C)C(=O)O)c(=O)c3sc2c1=O` (centres unmarked) [Compound 24, 2,2′-(1,3,5,7-Tetraoxo-1,3,5,7-tetrahydro-2H,6H-[1,4]dithiino[2,3-c:5,6-c′]dipyrrole-2,6-diyl)dipropanoic acid], 1.76. Consider `CCCCC(C(=O)OCC)n1c(=O)c2sc3c(=O)n(C(CCCC)C(=O)OCC)c(=O)c3sc2c1=O` (centres unmarked) [Compound 40, Diethyl 2,2′-(1,3,5,7-tetraoxo-1,3,5,7-tetrahydro-2H,6H-[1,4]dithiino[2,3-c:5,6-e]dipyrrole-2,6-diyl)di-hexanoate], for which the “log P” value is “log P = 4.66”. Compound `CCn1c(=O)c2sc3c(=O)[nH]c(=O)c3sc2c1=O` [Compound 39, 2-Ethyl-1H,5H-[1,4]dithiino[2,3-c:5,6-c′]dipyrrole-1,3,5,7(2H,6H)-tetrone] displayed a chromatographic logP of 2.13. Same read-out and setting: with `Cn1c(=O)c2sc3c(=O)n(C)c(=O)c3sc2c1=O` [Compound 1, 2,6-Dimethyl-1H,5H-[1,4]dithiino[2,3-c:5,6-c′]dipyrrole-1,3,5,7(2H,6H)-tetrone] the figure was 2.32; with `O=c1[nH]c(=O)c2sc3c(=O)[nH]c(=O)c3sc12` [Compound 8, 1H,5H-[1,4]Dithiino[2,3-c:5,6-c′]dipyrrole-1,3,5,7(2H,6H)-tetrone], 1.13.

As for `O=c1c2sc3c(=O)n(C4(C(F)(F)F)CC4)c(=O)c3sc2c(=O)n1C1(C(F)(F)F)CC1` [Compound 7, 2,6-Bis[1-(trifluoromethyl)cyclopropyl]-1H,5H-[1,4]dithiino[2,3-c:5,6-c′]dipyrrole-1,3,5,7(2H,6H)-tetrone], the chromatographic logP was 4.03. The same measure, in the same setting: the result for `CCC(Cn1c(=O)c2sc3c(=O)n(CC(CC)OC(C)=O)c(=O)c3sc2c1=O)OC(C)=O` (centres unmarked) [Compound 35, (1,3,5,7-Tetraoxo-1,3,5,7-tetrahydro-2H,6H-[1,4]dithiino[2,3-c:5,6-c′]dipyrrole-2,6-diyl)dibutane-1,2-diyl diacetate] reads 3.09. The same measure, in the same setting: with `CCC(O)Cn1c(=O)c2sc3c(=O)n(CC(O)CC)c(=O)c3sc2c1=O` (centres unmarked) [Compound 13, 2,6-Bis(2-hydroxybutyl)-1H,5H-[1,4]dithiino[2,3-c:5,6-c′]dipyrrole-1,3,5,7(2H,6H)-tetrone] the figure was 2.27; with `O=C(O)C(Cc1ccccc1)n1c(=O)c2sc3c(=O)n(C(Cc4ccccc4)C(=O)O)c(=O)c3sc2c1=O` (centres unmarked) [Compound 32, 2,2′-(1,3,5,7-Tetraoxo-1,3,5,7-tetrahydro-2H,6H-[1,4]dithiino[2,3-c:5,6-c′]dipyrrole-2,6-diyl)bis(3-phenyl-propanoic acid)], 3.12; with `O=c1c2sc3c(=O)n(-c4cccc(C(F)(F)F)c4)c(=O)c3sc2c(=O)n1-c1cccc(C(F)(F)F)c1` [Compound 31, 2,6-Bis[3-(trifluoromethyl)phenyl]-1H,5H-[1,4]dithiino[2,3-c:5,6-c′]dipyrrole-1,3,5,7(2H,6H)-tetrone], 4.91.

Another series deals with Pyrenophora teres. The series is described as follows: Pyrenophora teres test (barley)/protective. In kind it is in vivo. The note with it: protective spray, 1000 ppm active substance, evaluation 8 days after inoculation. As for the experimental part: Pyrenophora teres Test (Barley)/Protective
To prepare a suitable preparation of active substance, 1 part by weight of active substance is mixed with the stated amounts of solvent and emulsifier, and the concentrate is diluted with water to the desired concentration.
To test for protective activity, young plants are sprayed with the active substance preparation at the application rate detailed. After the spray coating has dried on, the plants are sprayed with a spore suspension of Pyrenophora teres. The plants remain in an incubation cabinet for 48 hours at 20° C. and 100% relative atmospheric humidity. The plants are placed in a greenhouse at a temperature of approximately 20° C. and a relative atmospheric humidity of approximately 80%.
Evaluation is carried out 8 days after the inoculation. 0% means an efficacy which corresponds to that of the control, while an efficacy of 100% means that no disease is observed.
For the compound `Cn1c(=O)c2sc3c(=O)n(C)c(=O)c3sc2c1=O` [Compound 1, 2,6-Dimethyl-1H,5H-[1,4]dithiino[2,3-c:5,6-c′]dipyrrole-1,3,5,7(2H,6H)-tetrone], the efficacy is listed as at least 70%.
